Cc1nc2n(c(=O)c1CCN1CCC(c3noc4cc(F)ccc34)CC1)CCCC2
solubility (mole fraction)
Conditions	278.15 K	283.15 K	288.15 K	293.15 K	298.15 K	303.15 K	308.15 K	313.15 K
in acetone	0.000769	0.00111	0.00135	0.00166	0.00208	0.00251	0.00309	0.0039
in ethanol	0.000876	0.00107	0.00133	0.00156	0.00209	0.00259	0.00333	0.00427
in ethyl acetate	0.00113	0.00144	0.00165	0.00207	0.00248	0.00297	0.00373	0.00464
in isobutyl acetate	0.000791	0.00106	0.00129	0.0015	0.00183	0.00226	0.00266	0.0033
in isopropanol	0.00047	0.0006	0.000714	0.000853	0.00111	0.00134	0.00193	0.00271
in isopropyl acetate	0.000742	0.000884	0.00102	0.00125	0.0015	0.00186	0.00225	0.0027
in methanol	0.00204	0.00226	0.00273	0.00331	0.00407	0.00506	0.00623	0.00787
in methyl acetate	0.00124	0.00153	0.0018	0.00219	0.00264	0.00329	0.00397	0.00489
in n-butanol	0.00144	0.00183	0.00225	0.00291	0.00368	0.00479	0.00621	0.00792
in n-butyl acetate	0.00112	0.00129	0.00159	0.00189	0.00241	0.00282	0.00341	0.00386
in n-propanol	0.00111	0.00149	0.00199	0.00248	0.0031	0.00409	0.00532	0.00683
in n-propyl acetate	0.00116	0.00147	0.00166	0.00202	0.00242	0.00288	0.00357	0.00424
in sec-butanol	0.00187	0.00244	0.00286	0.00361	0.00464	0.00604	0.00769	0.00987

Reference: BigSolDB 2.1
